Measured values as given in paper PMC6759494 (Tetrahedron, 2019).

Molecular target: peptide deformylase (EcPDF) (Escherichia coli, UniProt P0A6K3)
Test: coupled colorimetric assay
Assay type: biochemical

peptide deformylase (EcPDF), sequence (P0A6K3 2-169): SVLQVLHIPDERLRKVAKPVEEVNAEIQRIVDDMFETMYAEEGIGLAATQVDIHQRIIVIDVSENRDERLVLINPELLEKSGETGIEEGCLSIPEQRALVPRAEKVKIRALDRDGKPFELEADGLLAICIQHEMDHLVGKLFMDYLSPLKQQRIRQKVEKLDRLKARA

Compound | % inhibition at 4 μM | inhibition at 4 µM (read-out: % inhibition at 4 μM)
C/C=C/c1c(O)c(O)cc2c1[C@@](C)(NC(=O)/C=C/C(=O)O)C(=O)O2 (racemic) [compound 1, (±)-fumimycin] | ~ 20 | 
CCCCC[C@H](CC(=O)NO)C(=O)N[C@H](C(=O)N1CCC[C@H]1CO)C(C)C [compound 2, actinonin] |  | ~95%
Dimethoxy-fumimycin hydroxamic acid [17f] | ~ 20 | 
Dimethoxy-fumimycin methyl ester [17b] | ~ 20 | 
Fumimycin Weinreb amide [17h] | ~ 16 | 
